Measured values: patent US20240335404A1, “SUBSTITUTED ESTERS CONTAINING POLYOLS AND SACCHARIDES FOR TREATING HEPATOTOXICITY AND FATTY LIVER DISEASES” (SINEW PHARMA INC., priority 2015, published 2024)

System: fatty liver
Test: High fat diet-induced fatty liver in B6 mice
Type: in vivo
Details: HFD mice; for GSH / Gpx / Grd / SOD: liver; for ALT / AST / TC in liver / TG in liver: administration period of 4 weeks; for liver TC / liver TG: 4 or 8 weeks; for ALT and AST values: compounds administered separately; for liver tissue sections, H&E: treated for 4 weeks, FIG. 5
Procedure: More than four mice were used in each group of the pre-test, while more than twelve mice were used in each group of the confirmatory test. […] The animal test was carried out according to the guideline for animal experiment of National Health Research Institutes. […] The weight of mice was recorded once a week. The tested animals were grouped randomly into Blank, High Fat Diet control (HFD), Positive Control (PS), and Test group. The animals of Blank were fed with normal feed. The animals of HFD were fed with high fat feed. […] The animals of Test group were fed with high fat feed, and additionally fed with test compounds by a tube. The animals of Blank were fed casually with normal feed for 12 weeks, while the animals of HFD, PS, and Test group were fed casually with high fat feed for 12 weeks. After 8 weeks of feeding, the animals of Blank and HFD were fed with deionized water by a tube once a day; the animals of PS were fed with silymarin by a tube once a day; and the animals of Test Group were fed with test compounds by a tube once a day for a duration of 4 or 8 weeks. Before testing and in the eighth, twelfth, and sixteenth week after testing, blood was collected from the cheek or the heart. At the end of testing, all mice were weighted and then sacrificed, and blood was collected from the cheek or the heart simultaneously. The blood specimens of mice rested at room temperature for one hour to clot, and then the serum was separated by centrifugation in a refrigeration centrifuge at 15,700×g at 4° C. for 5 minutes. Afterwards, biochemical indices of liver function, including aspartate transaminase (AST), alanine aminotransferase (ALT), triglyceride (TG), total cholesterol (TCHO/TC), low-density lipoprotein cholesterol (LDL-C), and high-density lipoprotein cholesterol (HDL-C), were detected by the automatic blood biochemistry analyzer. In addition, abdominal fat and liver specimens were taken from the abdomens of sacrificed mice and weighted to compare the weight of fat and liver and obtain the ratio of liver weight to body weight. […] The cut sections proceeded with H&E staining for histopathological observation. Moreover, the rest of the liver was frozen for preservation and detection of the contents of triglyceride and total cholesterol in the liver. Furthermore, the liver function of animals of each group were analyzed by Galactose Single Point Method, which was recognized and recommended for quantification of remaining liver function in clinical use by U.S. FDA and Ministry of Health and Welfare, Taiwan. […] One hour after the administration, about 0.5 ml of whole blood was taken by using a filter paper to evaluate liver function of mice. The higher the value of GSP was, the worse the remaining liver function would be. (FDA: “Guidance for Industry: Pharmacokinetics in Patients with Impaired. Hepatic Function-Study Design, Data Analysis and Impact on Dosing and. Labeling. 2003. At the end of the test, all mice were sacrificed. […] Afterwards, xylene was replaced with hot paraffin solution. At last, the tissue was embedded with paraffin solution. The finished paraffin specimen was cut into […] paraffin sections by the microtome. The sections were pasted on clean slides, dried at 37° C., and then stained by H&E staining. In order to observe the changes of lesion, fat accumulation, necrosis, or fibrosis in liver cells when there was an ongoing liver damage, liver tissues were H&E stained to evaluate the degree of liver fat accumulation. All the histopathological sections were cut from the same position on the largest right lobe of liver for eliminating bias in subjective observation, and then subject to pathological staining. As for the assessment of semi-quantitative analysis in pathology, it had to be confirmed by a physician or a veterinary pathologist who conducted a double-blind analysis to score (NAS score) and compare all the sections without knowing the test design. […]

[1] = 2.5 mg/kg, test period of 4 weeks
[2] = 1.5 mg/kg, test period of 4 weeks

O=C1C[C@@H](c2ccc(O)c(O)c2)Oc2cc(O)cc(O)c21 [Eriodictyol]
GSH [1]: 1302.0 ± 241.1 U/L | Gpx [1]: 3083.3 ± 378.9 U/L | Grd [1]: 86.9 ± 15.7 U/L | SOD [1]: 385.9 ± 34.0 U/L | Abdominal fat weight (2.5 mg/kg): 2.7 ± 0.6 g | Increase of body weight (2.5 mg/kg): 8.3 ± 6.7 g | Liver weight (2.5 mg/kg): 1.3 ± 0.1 g | ALT (2.5 mg/kg): 33.7 ± 18.5 U/L | AST (2.5 mg/kg): 100.9 ± 42.0 U/L | TC in liver (2.5 mg/kg): 3.8 ± 1.1 mg/g liver | TG in liver (2.5 mg/kg): 43.1 ± 13.1 mg/g liver | NAS [1]: 1.5 ± 0.8 mg/g liver | ALT (5.0 mg/kg): 41.4 ± 6.3 U/L | AST (5.0 mg/kg): 161.4 ± 42.3 U/L | TC in liver (5.0 mg/kg): 3.0 ± 0.9 mg/g liver | TG in liver (5.0 mg/kg): 54.2 ± 15.0 mg/g liver | reduction in liver TG content (4-week treatment, p<0.005): about 67% | liver TC: reduce TC in liver significantly | liver TG: reduce TG in liver significantly | liver antioxidant activity (4 weeks): improve antioxidant activity significantly | liver damage, NAS (4 weeks): reduce liver damage significantly | ALT and AST values: reduce ALT and AST values significantly | liver tissue sections, H&E: large vesicular fat droplets within liver cells in liver tissue section were significantly reduced

COc1ccc([C@@H]2CC(=O)c3c(O)cc(O)cc3O2)cc1O [Hesperitin]
GSH [1]: 1742.6 ± 241.5 U/L | Gpx [1]: 3133.3 ± 376.9 U/L | Grd [1]: 102.5 ± 28.3 U/L | SOD [1]: 408.3 ± 66.7 U/L | Abdominal fat weight (2.5 mg/kg): 3.0 ± 0.5 g | Increase of body weight (2.5 mg/kg): 14.5 ± 8.3 g | Liver weight (2.5 mg/kg): 1.5 ± 0.1 g | ALT (2.5 mg/kg): 36.8 ± 22.1 U/L | AST (2.5 mg/kg): 72.4 ± 11.2 U/L | TC in liver (2.5 mg/kg): 3.7 ± 0.7 mg/g liver | TG in liver (2.5 mg/kg): 67.8 ± 16.6 mg/g liver | liver TC: reduce TC in liver significantly | liver TG: reduce TG in liver significantly | liver antioxidant activity (4 weeks): improve antioxidant activity significantly | ALT and AST values: reduce ALT and AST values significantly

CC1CCC(C(C)C)C(O)C1 (centres unmarked) [Menthol]
weight of abdominal fat: reduce the weight of abdominal fat in animals significantly | GSH [2]: 1432.7 ± 104.0 U/L | Gpx [2]: 2921.7 ± 640.2 U/L | Grd [2]: 95.2 ± 16.2 U/L | SOD [2]: 427.9 ± 41.9 U/L | Abdominal fat weight (1.5 mg/kg): 2.3 ± 0.6 g | Increase of body weight (1.5 mg/kg): 19.6 ± 5.0 g | Liver weight (1.5 mg/kg): 1.6 ± 0.2 g | ALT (1.5 mg/kg): 41.5 ± 13.7 U/L | AST (1.5 mg/kg): 129.9 ± 37.1 U/L | TC in liver (1.5 mg/kg): 4.4 ± 3.5 mg/g liver | TG in liver (1.5 mg/kg): 87.3 ± 72.3 mg/g liver | liver TC: reduce TC in liver significantly | liver TG: reduce TG in liver significantly | ALT and AST values: reduce ALT and AST values significantly | liver tissue sections, H&E: large vesicular fat droplets within liver cells in liver tissue section were significantly reduced

O=C(CCc1ccc(O)cc1)c1c(O)cc(O)cc1O[C@@H]1O[C@H](CO)[C@@H](O)[C@H](O)[C@H]1O [Phloridzin]
GSH [1]: 1387.7 ± 168.2 U/L | Gpx [1]: 3234.0 ± 505.1 U/L | Grd [1]: 82.2 ± 33.6 U/L | SOD [1]: 411.5 ± 87.5 U/L | Abdominal fat weight (2.5 mg/kg): 2.3 ± 0.6 g | Increase of body weight (2.5 mg/kg): 13.7 ± 10.7 g | Liver weight (2.5 mg/kg): 1.3 ± 0.1 g | ALT (2.5 mg/kg): 35.7 ± 9.1 U/L | AST (2.5 mg/kg): 161.9 ± 96.2 U/L | TC in liver (2.5 mg/kg): 2.9 ± 0.5 mg/g liver | TG in liver (2.5 mg/kg): 48.9 ± 14.1 mg/g liver

O=c1c(-c2ccc(O)cc2)coc2c([C@@H]3O[C@H](CO)[C@@H](O)[C@H](O)[C@H]3O)c(O)ccc12 [Puerarin]
GSH [1]: 1498.1 ± 150.0 U/L | Gpx [1]: 3581.7 ± 1056.7 U/L | Grd [1]: 99.0 ± 17.2 U/L | SOD [1]: 434.5 ± 59.8 U/L | Abdominal fat weight (2.5 mg/kg): 2.8 ± 0.3 g | Increase of body weight (2.5 mg/kg): 21.7 ± 3.1 g | Liver weight (2.5 mg/kg): 1.4 ± 0.2 g | ALT (2.5 mg/kg): 34.4 ± 14.7 U/L | AST (2.5 mg/kg): 66.9 ± 8.5 U/L | TC in liver (2.5 mg/kg): 6.7 ± 2.7 mg/g liver | TG in liver (2.5 mg/kg): 89.4 ± 49.1 mg/g liver | liver TG: reduce TG in liver significantly | liver antioxidant activity (4 weeks): improve antioxidant activity significantly | ALT and AST values: reduce ALT and AST values significantly

O=C1NS(=O)(=O)c2ccccc21 [Saccharin]
Abdominal fat weight (1.5 mg/kg): 2.3 ± 0.5 g | Increase of body weight (1.5 mg/kg): 27.7 ± 12.7 g | Liver weight (1.5 mg/kg): 1.5 ± 0.1 g | ALT (1.5 mg/kg): 50.7 ± 29.7 U/L | AST (1.5 mg/kg): 170.4 ± 28.6 U/L | TC in liver (1.5 mg/kg): 2.8 ± 1.5 mg/g liver | TG in liver (1.5 mg/kg): 84.0 ± 41.4 mg/g liver | reduction in liver TC content (4-week treatment, p<0.005): about 56% | liver TC: reduce TC in liver significantly | ALT and AST values: reduce ALT and AST values significantly
